For one data set, the system named is interferon (α). Nature of the data set: Interferon (α) induction in human cells (in vitro human blood cell system, interferon by bioassay). In kind it is cell-based. The settings on record: human PBM's, 48 hours. As to the method: An in vitro human blood cell system was used to assess interferon induction by compounds of the invention. Activity is based on the measurement of interferon secreted into culture media. Interferon is measured by bioassay.
Whole blood is collected by venipuncture into EDTA vacutainer tubes. Peripheral blood mononuclear cells (PBM's) are separated from whole blood by using either LeucoPREP™ Brand Cell Separation Tubes (available from Becton Dickinson) or Ficoll-Paque® solution (available from Pharmacia LKB Biotechnology Inc, Piscataway, N.J.). […] 200 μL portions of PBM suspension are added to 96 well (flat bottom) sterile tissue culture plates (Becton Dickinson Labware, Lincoln Park, N.J.).
The compounds are solubilized in ethanol, dimethyl sulfoxide or tissue culture water then diluted with tissue culture water, 0.01N sodium hydroxide or 0.01N hydrochloric acid (The choice of solvent will depend on the chemical characteristics of the compound being tested.). Ethanol or DMSO concentration should not exceed a final concentration of 1% for addition to the culture wells. Compounds are initially tested in a concentration range of from about 0.1 μg/mL to about 5 μg/mL. Compounds which show induction at a concentration of 0.5 μg/mL are then tested in a wider concentration range.
The solution of test compound is added in a volume (less than or equal to 50 μL) to the wells containing 200 μL of diluted whole blood or of PBM's in media. Solvent and/or media is added to control wells (wells with no test compound) and as needed to adjust the final volume of each well to 250 μL. The plates are covered with plastic lids, vortexed gently and then incubated for 48 hours at 37° C. with a 5% carbon dioxide atmosphere.
Following incubation, the plates are covered with parafilm and then centrifuged at 1000 rpm for 10 to 15 minutes at 4° C. in a Damon IEC Model CRU-5000 centrifuge. Media (about 200 μL) is removed from 4 to 8 wells and pooled into 2 mL sterile freezing vials. Samples are maintained at −70° C. until analysis.
Interferon is determined by bioassay using A549 human lung carcinoma cells challenged with encephalomyocarditis. The details of the bioassay method have been described by G. L. Brennan and L. H. Kronenberg in “Automated Bioassay of Interferons in Micro-test Plates”, Biotechniques, June/Jul. […] The incubated cells are infected with an inoculum of encephalomyocarditis virus. The infected cells are incubated for an additional period at 37° C. before quantifying for viral cytopathic effect. The viral cytopathic effect is quantified by staining followed by spectrophotometric absorbance measurements. Results are expressed as alpha reference units/mL based on the value obtained for NIH HU IF-L standard.
Compounds of the invention were tested for their ability to induce interferon in human cells using the test method described above.

By melting point is commonly meant the temperature of the solid-liquid transition. On to `CCCc1nc2c(N)nc3cc(C)ccc3c2s1` [Example 45, 7-Methyl-2-propylthiazolo[4,5-c]quinolin-4-amine], for which the melting point lay within 186 to 187 °C. The “Interferon (α) Induction in Human Cells” value in the data set on interferon (α) (Dose Concentration 0.01 μg/mL) is reported as “−”. In the data set on interferon (α) (Dose Concentration 0.05 μg/mL), the “Interferon (α) Induction in Human Cells” value is recorded as “+”. For the same compound, the “Interferon (α) Induction in Human Cells” value in the data set with interferon (α) (Dose Concentration 0.10 μg/mL) is reported as “+”. In the data set with interferon (α) (Dose Concentration 0.50 μg/mL), the “Interferon (α) Induction in Human Cells” value is “+”. The “Interferon (α) Induction in Human Cells” value in the data set on interferon (α) (Dose Concentration 1.0 μg/mL) is “+”. Also, the “Interferon (α) Induction in Human Cells” value with interferon (α) (Dose Concentration 5.0 μg/mL) is “+”.

As to `Nc1nc2ccccc2c2sc(CO)nc12` [Example 37, (4-Aminothiazolo[4,5-c]quinolin-2-yl)-methanol], the melting point lay within 247 to 249 °C. Besides, the “Interferon (α) Induction in Human Cells” value in the data set on interferon (α) (Dose Concentration 0.01 μg/mL) is “−”. Also, in the data set with interferon (α) (Dose Concentration 0.05 μg/mL), the “Interferon (α) Induction in Human Cells” value was “−”. Besides, the “Interferon (α) Induction in Human Cells” value in the data set with interferon (α) (Dose Concentration 0.10 μg/mL) is given as “−”. For the same compound, the “Interferon (α) Induction in Human Cells” value in the data set on interferon (α) (Dose Concentration 0.50 μg/mL) was “−”. Further, the “Interferon (α) Induction in Human Cells” value in the data set with interferon (α) (Dose Concentration 1.0 μg/mL) is “−”. In the data set on interferon (α) (Dose Concentration 5.0 μg/mL), the “Interferon (α) Induction in Human Cells” value was “−”.

`CCCc1nc2c(N)nc3cc(C)ccc3c2o1` [Example 47, 7-Methyl-2-propyloxazolo[4,5-c]quinolin-4-amine] gave a melting point of 188 to 189 °C. For the same compound, in the data set on interferon (α) (Dose Concentration 0.01 μg/mL), the “Interferon (α) Induction in Human Cells” value is given as “−”. Besides, the “Interferon (α) Induction in Human Cells” value in the data set with interferon (α) (Dose Concentration 0.05 μg/mL) is “+”. For the same compound, the “Interferon (α) Induction in Human Cells” value in the data set on interferon (α) (Dose Concentration 0.10 μg/mL) is given as “+”. The “Interferon (α) Induction in Human Cells” value in the data set on interferon (α) (Dose Concentration 0.50 μg/mL) is given as “+”. The “Interferon (α) Induction in Human Cells” value in the data set with interferon (α) (Dose Concentration 1.0 μg/mL) is “+”. Moreover, the “Interferon (α) Induction in Human Cells” value in the data set on interferon (α) (Dose Concentration 5.0 μg/mL) is on record as “+”.

Take `COCc1nc2c(N)nc3ccccc3c2s1` [Example 30, 2-(Methoxymethyl)thiazolo[4,5-c]quinolin-4-amine]: the melting point lay within 183 to 185 °C. In the data set with interferon (α) (Dose Concentration 0.01 μg/mL), the “Interferon (α) Induction in Human Cells” value is “−”. The “Interferon (α) Induction in Human Cells” value in the data set with interferon (α) (Dose Concentration 0.05 μg/mL) is “−”. The “Interferon (α) Induction in Human Cells” value with interferon (α) (Dose Concentration 0.10 μg/mL) was “−”. In addition, the “Interferon (α) Induction in Human Cells” value in the data set with interferon (α) (Dose Concentration 0.50 μg/mL) is listed as “−”. The “Interferon (α) Induction in Human Cells” value in the data set with interferon (α) (Dose Concentration 1.0 μg/mL) is on record as “+”. The “Interferon (α) Induction in Human Cells” value with interferon (α) (Dose Concentration 5.0 μg/mL) was “+”.

`CCCc1nc2c(N)nc3cc(C(F)(F)F)ccc3c2s1` [Example 50, 2-Propyl-7-(trifluoromethyl)thiazolo[4,5-c]quinolin-4-amine] had a melting point of 215 to 216 °C. Further, the “Interferon (α) Induction in Human Cells” value in the data set with interferon (α) (Dose Concentration 0.10 μg/mL) is “−”. Besides, in the data set with interferon (α) (Dose Concentration 0.50 μg/mL), the “Interferon (α) Induction in Human Cells” value was “+”. The “Interferon (α) Induction in Human Cells” value with interferon (α) (Dose Concentration 1.0 μg/mL) is reported as “+”. For the same compound, the “Interferon (α) Induction in Human Cells” value in the data set with interferon (α) (Dose Concentration 5.0 μg/mL) is “+”. In addition, the “Interferon (α) Induction in Human Cells” value in the data set on interferon (α) (Dose Concentration 10.0 μg/mL) is on record as “+”. The “Interferon (α) Induction in Human Cells” value in the data set on interferon (α) (Dose Concentration 25.0 μg/mL) is “+”. For the same compound, in the data set with interferon (α) (Dose Concentration 50.0 μg/mL), the “Interferon (α) Induction in Human Cells” value is “+”.

`CCCc1nc2c(N)nc3ccc(Br)cc3c2s1` [Example 44, 8-Bromo-2-propylthiazolo[4,5-c]quinolin-4-amine]: the melting point fell in the range of 177 to 180 °C. Moreover, the “Interferon (α) Induction in Human Cells” value in the data set with interferon (α) (Dose Concentration 0.10 μg/mL) is “−”. In addition, the “Interferon (α) Induction in Human Cells” value in the data set on interferon (α) (Dose Concentration 0.50 μg/mL) is given as “−”. Further, the “Interferon (α) Induction in Human Cells” value in the data set with interferon (α) (Dose Concentration 1.0 μg/mL) is recorded as “−”. In addition, the “Interferon (α) Induction in Human Cells” value in the data set with interferon (α) (Dose Concentration 5.0 μg/mL) is “+”. For the same compound, the “Interferon (α) Induction in Human Cells” value in the data set with interferon (α) (Dose Concentration 10.0 μg/mL) is recorded as “+”. Further, the “Interferon (α) Induction in Human Cells” value in the data set on interferon (α) (Dose Concentration 25.0 μg/mL) is recorded as “+”. In addition, the “Interferon (α) Induction in Human Cells” value in the data set on interferon (α) (Dose Concentration 50.0 μg/mL) is listed as “+”.

`Nc1nc2ccccc2c2sc(N3CCCC3)nc12` [Example 54, 2-(1-Pyrrolidino)thiazolo[4,5-c]quinolin-4-amine] returned a melting point of 259 to 261 °C. The “Interferon (α) Induction in Human Cells” value in the data set with interferon (α) (Dose Concentration 0.01 μg/mL) was “−”. The “Interferon (α) Induction in Human Cells” value in the data set with interferon (α) (Dose Concentration 0.05 μg/mL) is on record as “−”. Also, the “Interferon (α) Induction in Human Cells” value in the data set on interferon (α) (Dose Concentration 0.10 μg/mL) was “−”. Moreover, in the data set with interferon (α) (Dose Concentration 0.50 μg/mL), the “Interferon (α) Induction in Human Cells” value is “−”. The “Interferon (α) Induction in Human Cells” value in the data set with interferon (α) (Dose Concentration 1.0 μg/mL) is on record as “−”. The “Interferon (α) Induction in Human Cells” value in the data set on interferon (α) (Dose Concentration 5.0 μg/mL) is on record as “−”. Moreover, in the data set on interferon (α) (Dose Concentration 10.0 μg/mL), the “Interferon (α) Induction in Human Cells” value is listed as “−”. The “Interferon (α) Induction in Human Cells” value in the data set with interferon (α) (Dose Concentration 25.0 μg/mL) was “+”. Moreover, the “Interferon (α) Induction in Human Cells” value with interferon (α) (Dose Concentration 50.0 μg/mL) is given as “+”.

`CCc1nc2c(N)nc3ccccc3c2o1` [Example 39, 2-Ethyloxazolo [4,5-c]quinolin-4-amine] gave a melting point of 175 to 178 °C. The “Interferon (α) Induction in Human Cells” value in the data set on interferon (α) (Dose Concentration 0.01 μg/mL) was “−”. In addition, in the data set with interferon (α) (Dose Concentration 0.05 μg/mL), the “Interferon (α) Induction in Human Cells” value is “−”. For the same compound, the “Interferon (α) Induction in Human Cells” value in the data set with interferon (α) (Dose Concentration 0.10 μg/mL) was “+”. For the same compound, in the data set with interferon (α) (Dose Concentration 0.50 μg/mL), the “Interferon (α) Induction in Human Cells” value is listed as “+”. In addition, the “Interferon (α) Induction in Human Cells” value in the data set on interferon (α) (Dose Concentration 1.0 μg/mL) is “+”. Also, in the data set with interferon (α) (Dose Concentration 5.0 μg/mL), the “Interferon (α) Induction in Human Cells” value was “+”.

Compound `Cc1nc2c(N)nc3ccccc3c2s1.Cl` [Example 4, 2-Methylthiazolo[4,5-c]quinolin-4-amine Hydrochloride] came in with a melting point of 323 to 325 °C. The “Interferon (α) Induction in Human Cells” value in the data set with interferon (α) (Dose Concentration 0.01 μg/mL) is “−”. In the data set on interferon (α) (Dose Concentration 0.05 μg/mL), the “Interferon (α) Induction in Human Cells” value is “−”. In addition, the “Interferon (α) Induction in Human Cells” value in the data set with interferon (α) (Dose Concentration 0.10 μg/mL) is “−”. The “Interferon (α) Induction in Human Cells” value with interferon (α) (Dose Concentration 0.50 μg/mL) was “+”. For the same compound, the “Interferon (α) Induction in Human Cells” value in the data set on interferon (α) (Dose Concentration 1.0 μg/mL) is “+”. In addition, the “Interferon (α) Induction in Human Cells” value with interferon (α) (Dose Concentration 5.0 μg/mL) is “+”.

For `Cc1nc2c(N)nc3ccccc3c2o1` [Example 38, 2-Methyloxazolo[4,5-c]quinolin-4-amine], the melting point lay in the range of 195 to 197 °C. For the same compound, the “Interferon (α) Induction in Human Cells” value with interferon (α) (Dose Concentration 0.01 μg/mL) is recorded as “−”. In addition, the “Interferon (α) Induction in Human Cells” value in the data set with interferon (α) (Dose Concentration 0.05 μg/mL) is given as “−”. The “Interferon (α) Induction in Human Cells” value in the data set with interferon (α) (Dose Concentration 0.10 μg/mL) is on record as “−”. In the data set on interferon (α) (Dose Concentration 0.50 μg/mL), the “Interferon (α) Induction in Human Cells” value is listed as “+”. In addition, in the data set with interferon (α) (Dose Concentration 1.0 μg/mL), the “Interferon (α) Induction in Human Cells” value was “+”. Further, in the data set on interferon (α) (Dose Concentration 5.0 μg/mL), the “Interferon (α) Induction in Human Cells” value was “+”.

The record behind these values is US7148232B2, “Oxazolo, thiazolo and selenazolo [4,5-c]-quinolin-4-amines and analogs thereof” (3M Innovative Properties Company, priority 1998, dated 2006).
